# In patent US8445207B2, “Genes based on thalidomide, valproic acid and methotrexate treatment for screening of drug inducing teratogenicity and screening method using thereof” (priority 2009, dated 2013):
# Tested on: JEG-3 (human placental choriocarcinoma cell line)
# Assay: Oligo microarray gene expression in drug-treated JEG-3 (Cy5 treated / Cy3 control)
# Assay type: cell-based
# Procedure: Thalidomide, valproic acid, and methotrexate were treated to human placental choriocarcinoma cell line at the concentrations determined above (Inhibition concentration: the concentration that can kill approximately 30% of the total cells, that is the concentration of 70% viability, IC30). mRNA was extracted from the drug treated cell line, followed by synthesis of cDNA which was labeled with Cy5. The non-treated control was labeled with Cy3. The fluorescence labeled cDNA was hybridized with 41K (thalidomide), 44K (valproic acid, methotrexate) human whole genome oligomicroarray chips (Agilent, USA), followed by fluorescent image scanning to analyze gene expression patterns (see FIG. 4). Volcano Plot of each substance was also attached. Y axis indicates probability (generally converted by −log 10). X axis indicates differential expression, which is presented by log-ratio.
# Total RNA was separated from the treated cell by using trizol reagent (Invitrogen Life Technologies, USA) according to the manufacture's instructions, followed by purification using RNeasy mini kit (Qiagen, USA). Genomic DNA was eliminated during RNA purification using RNase-free DNase set (Qiagen, USA).
# 30 μg of the total RNA obtained above and 2 μg (1 μg/μl) of oligo (dT) primer were mixed, followed by reaction at 65° C. for 10 minutes. Annealing was performed in ice right after the reaction. Reagents were prepared as shown in Table 1 for reverse transcription of the annealed RNA.
# The total RNA separated from the control group JEG-3 cells was labeled with Cy3-dUTP (green) and the total RNA separated from the experiment group JEG-3 cells treated with thalidomide, valproic acid and methotrexate was labeled with Cy5-dUTP (red). At this time, the two samples were mixed and purified by Microcon YM-30 column (Millipore, USA).
# Hybridization and washing were performed by the manufacturer's (GenoCheck, Korea) instructions. Particularly, hybridization was performed in a 62° C. oven for 12 hours. As a DNA microarray chip, 44 k whole human genome oligo microarray (Agilent, USA) was used. After washing (2 minutes with 2×SSC/0.1% SDS, three minutes with 1×SSC, 2 minutes with 0.2×SSC), the slide was dried by centrifugation at 800 rpm for 3 minutes.
# Hybridization image on the slide was scanned with Genepix 4000B (Axon Instruments, USA). Fluorescence image of the chip on which non-hybridized genes had been washed out was obtained by using laser fluorescence scanner. Green fluorescence image indicates the activity of gene specifically expressed in the control group and red fluorescence image indicates the activity of gene specifically expressed in the experimental group. […] Scanned image was analyzed by using GenePix 4.1 software (Axon Instruments, USA) to calculate gene expression rate.
# [1] = out of 21797 (thalidomide), 21921 (valproic acid), 24006 (methotrexate) genes
# [2] = treated at IC30, up-regulated gene, (h) Nervous system development
compound,measurement,setting,value
"CCCC(CCC)C(=O)O [VPA, valproic acid]","cDNA microarray (Cy3/Cy5 ratio), KIAA0310",GenBank AB002308,1.59
same,"cDNA microarray (Cy3/Cy5 ratio), ATP10B",GenBank AB018258,2.03
same,"cDNA microarray (Cy3/Cy5 ratio), TTF2",GenBank AB209845,1.81
same,"cDNA microarray (Cy3/Cy5 ratio), TncRNA",GenBank AF001893,3.61
same,"cDNA microarray (Cy3/Cy5 ratio), C4orf19",GenBank AK001879,1.87
same,"cDNA microarray (Cy3/Cy5 ratio), CYP19A1",GenBank AK023571,1.78
same,"cDNA microarray (Cy3/Cy5 ratio), SLC40A1",GenBank AK023574,1.7
same,"cDNA microarray (Cy3/Cy5 ratio), ABTB2",GenBank AK095632,1.6
same,"cDNA microarray (Cy3/Cy5 ratio), TUBB3",GenBank AK122757,1.7
same,"cDNA microarray (Cy3/Cy5 ratio), MGC27016",GenBank AK125877,2.62
same,"cDNA microarray (Cy3/Cy5 ratio), GLCCI1",GenBank AK126731,2.27
same,"cDNA microarray (Cy3/Cy5 ratio), TFCP2L4",GenBank BC036890,3.12
same,"cDNA microarray (Cy3/Cy5 ratio), RGS2",GenBank BC042755,3.04
same,"cDNA microarray (Cy3/Cy5 ratio), SIAT7A",GenBank BC063830,1.69
same,"cDNA microarray (Cy3/Cy5 ratio), B7-H4",GenBank BX648021,0.1
same,"cDNA microarray (Cy3/Cy5 ratio), COBLL1",GenBank BX649112,1.52
same,"cDNA microarray (Cy3/Cy5 ratio), CGA",GenBank NM_000735,2.14
same,"cDNA microarray (Cy3/Cy5 ratio), PARP1",GenBank NM_001618,0.61
same,"cDNA microarray (Cy3/Cy5 ratio), SERPINB9",GenBank NM_004155,3.02
same,"cDNA microarray (Cy3/Cy5 ratio), ST8SIA4",GenBank NM_005668,1.79
same,"cDNA microarray (Cy5 treated / Cy3 control ratio), ABL1",GenBank NM_007313,0.3
same,"cDNA microarray (Cy3/Cy5 ratio), GRLF1",GenBank NM_024342,0.55
same,"cDNA microarray (Cy3/Cy5 ratio), LGP1",GenBank NM_032484,0.52
same,"cDNA microarray (Cy3/Cy5 ratio), NCOA3",GenBank NM_181659,1.62
same,"cDNA microarray (Cy3/Cy5 ratio), SR140",GenBank XM_031553,0.36
same,"cDNA microarray (Cy3/Cy5 ratio), SLC7A8",GenBank Y18483,2.48
same,"Ratio of intermediate value, FLJ13855","Genbank AK091644, drug at IC30",0.44
same,"Ratio of intermediate value, GRLF1","Genbank BI494022, NM_024342, drug at IC30",0.55
same,"Ratio of intermediate value, B7-H4","Genbank BX648021, drug at IC30",0.10
same,"Ratio of intermediate value, PARP1","Genbank NM_001618, drug at IC30",0.61
same,"Ratio of intermediate value, ABL1","Genbank NM_007313, drug at IC30",0.30
same,"Ratio of intermediate value, LGP1","Genbank NM_032484, drug at IC30",0.52
same,"Ratio of intermediate value, SR140","Genbank XM_031553, drug at IC30",0.36
same,genes down-regulated (ratio of intermediate value less than 0.666),"JEG-3, drug at IC30, 48 hours",5.5%
same,genes up-regulated (ratio of intermediate value more than 1.5),"JEG-3, drug at IC30, 48 hours",5.54%
same,number of genes down-regulated,[1],1196
same,number of genes up-regulated,[1],1215
same,"Ratio of intermediate value, gene ALDH5A1 (NM_170740, ALDEHYDE DEHYDROGENASE 5 FAMILY, MEMBER A1 (SUCCINATE-SEMIALDEHYDE DEHYDROGENASE))",[2],4.68
same,"Ratio of intermediate value, gene ALS2 (NM_020919, AMYOTROPHIC LATERAL SCLEROSIS 2 (JUVENILE))",[2],2.40
same,"Ratio of intermediate value, gene C22orf9 (AY509035, ROUND-ABOUT, AXON GUIDANCE RECEPTOR, HOMOLOG 3 (DROSOPHILA))",[2],2.30
same,"Ratio of intermediate value, gene DLX2 (AB208823, NM_004405, DISTAL-LESS HOMEOBOX 2)",[2],3.18
same,"Ratio of intermediate value, gene DPYSL2 (NM_001386, DIHYDROPYRIMIDINASE-LIKE 2)",[2],3.34
same,"Ratio of intermediate value, gene DPYSL5 (AL713706, DIHYDROPYRIMIDINASE-LIKE 5)",[2],2.57
same,"Ratio of intermediate value, gene EDG1 (BC018650, ENDOTHELIAL DIFFERENTIATION, SPHINGOLIPID G-PROTEIN-COUPLED RECEPTOR, 1)",[2],2.34
same,"Ratio of intermediate value, gene EFCBP1 (L20470, VERY LOW DENSITY LIPOPROTEIN RECEPTOR)",[2],2.10
same,"Ratio of intermediate value, gene FABP7 (NM_001446, FATTY ACID BINDING PROTEIN 7, BRAIN)",[2],9.51
same,"Ratio of intermediate value, gene FLJ20489 (AK056650, IMMUNOGLOBULIN SUPERFAMILY, MEMBER 9)",[2],2.50
same,"Ratio of intermediate value, gene FLJ31842 (AY643499, HEXOSAMINIDASE B (BETA POLYPEPTIDE))",[2],2.38
same,"Ratio of intermediate value, gene GJA1 (NM_000165, GAP JUNCTION PROTEIN, ALPHA 1, 43 KDA (CONNEXIN 43))",[2],4.30
same,"Ratio of intermediate value, gene GRB14 (BM906235, INHIBITOR OF DNA BINDING 3, DOMINANT NEGATIVE HELIX-LOOP-HELIX PROTEIN)",[2],4.33
